Assay results taken from US20220324835A1 (Nurix Therapeutics, Inc., priority 2018, published 2022).

What was measured:
T-cell [1] = assay: IL-2 secretion from T-cells co-stimulated with anti-CD3 and anti-CD28 antibody (Biological Example 2); assay type: cell-based, human; conditions: Homo sapiens, T-cell, fold change over baseline, primary human total T-cells, read-out: IL-2 secretion Anti-CD3/Anti-CD28 stimulation; for fold induction at 0.3 µM: 0.3 μM Cbl-b inhibitor; for fold induction at 1 µM: 1 μM Cbl-b inhibitor; for fold induction at 4 µM: 4 μM Cbl-b inhibitor
Excerpt: (§1) Methods for experimentally determining increased T-cell activation, increased T-cell proliferation, decreased T-cell exhaustion, and/or decreased T-cell tolerance are well known in the art.
(§2) Modulation of activity of an immune cell, such as a T-cell, a B cell or a NK cell can be measured by determining a baseline value for a parameter of interest (e.g., cytokine secretion). […] A reference value then is obtained for T-cell activation after contacting or administering said Cbl-b inhibitor. The reference value is compared to the baseline value in order to determine the amount of T-cell activation due to contact or administration of the Cbl-b inhibitor or composition thereof. […] Immune cell activation can be assessed by measuring biological markers of activation such as increased cytokine secretion, increased cell surface expression of activation markers (e.g., cell surface markers), or increased phosphorylation of proteins in a downstream signaling pathway. The fold over baseline value that indicates immune cell activation can be determined for the parameter being tested and the conditions under which the immune cell were treated. For example, for measuring T-cell activation, a baseline value can be obtained from T-cells stimulated with anti-CD3 antibody in combination with anti-CD28 antibody, wherein the cells are not incubated with a Cbl-b inhibitor. […] A positive response for immune cell activation can then be determined by the obtained reference value. […]

T-cell [2] = assay: IL-2 secretion from T-cells stimulated with anti-CD3 antibody alone (Biological Example 2); assay type: cell-based, human; conditions: T-cell, fold change over baseline, primary human total T-cells, read-out: IL-2 secretion Anti-CD3 stimulation; for fold induction at 1 µM: 1 μM Cbl-b inhibitor; for fold induction at 8 µM: 8 μM Cbl-b inhibitor
Excerpt: as §1
(§3) Modulation of activity of an immune cell, such as a T-cell, a B cell or a NK cell can be measured by determining a baseline value for a parameter of interest (e.g., cytokine secretion). […] A reference value then is obtained for T-cell activation after contacting or administering said Cbl-b inhibitor. The reference value is compared to the baseline value in order to determine the amount of T-cell activation due to contact or administration of the Cbl-b inhibitor or composition thereof. […] Immune cell activation can be assessed by measuring biological markers of activation such as increased cytokine secretion, increased cell surface expression of activation markers (e.g., cell surface markers), or increased phosphorylation of proteins in a downstream signaling pathway. The fold over baseline value that indicates immune cell activation can be determined for the parameter being tested and the conditions under which the immune cell were treated. For example, for measuring T-cell activation, a baseline value can be obtained from T-cells stimulated with anti-CD3 antibody in combination with anti-CD28 antibody, wherein the cells are not incubated with a Cbl-b inhibitor. […] A positive response for immune cell activation can then be determined by the obtained reference value.
(§4) In some embodiments, a baseline value can be obtained from T-cells stimulated with anti-CD3 antibody alone, wherein the cells are not incubated with a Cbl-b inhibitor. In some embodiments, a positive response for T-cell activation as measured by cytokine secretion (e.g., IL-2 secretion) by T-cells stimulated with anti-CD3 antibody alone in the presence of a Cbl-b inhibitor is at least 0.1-fold over the baseline value for cytokine secretion (e.g., IL-2 secretion) obtained from T-cells stimulated with anti-CD3 antibody alone in the absence of a Cbl-b inhibitor. In some embodiments, a positive response for T-cell activation as measured by surface marker expression (e.g., CD25 surface marker staining) by T-cells stimulated with anti-CD3 antibody alone in the presence of a Cbl-b inhibitor is at least 0.6-fold over the baseline value for surface marker expression (e.g., CD25 surface marker staining) obtained from T-cells stimulated with anti-CD3 antibody alone in the absence of a Cbl-b inhibitor.

T-cell [3] = assay: CD25 cell surface staining on T-cells co-stimulated with anti-CD3 and anti-CD28 antibody (Biological Example 2); assay type: cell-based, human; conditions: Homo sapiens, T-cell, fold change over baseline, primary human total T-cells, read-out: CD25 staining Anti-CD3/Anti-CD28 stimulation; for fold induction at 0.3 µM: 0.3 μM Cbl-b inhibitor; for fold induction at 1 µM: 1 μM Cbl-b inhibitor; for fold induction at 4 µM: 4 μM Cbl-b inhibitor
Excerpt: as §1, §2

T-cell [4] = assay: CD25 cell surface staining on T-cells stimulated with anti-CD3 antibody alone (Biological Example 2); assay type: cell-based, human; conditions: T-cell, fold change over baseline, primary human total T-cells, read-out: CD25 staining Anti-CD3 stimulation; for fold induction at 1 µM: 1 μM Cbl-b inhibitor; for fold induction at 8 µM: 8 μM Cbl-b inhibitor
Excerpt: as §1, §3, §4

Cbl-b [5] = target: T1, Cbl-b (Homo sapiens, UniProt Q13191); assay: Cbl-b activity assay (Cbl-b inhibition assay), TR-FRET of Cbl-b interaction with UbcH5B-Ub; assay type: biochemical; conditions: assay buffer with 100 mM NaCl, 60 nM Src kinase; read-out: Cbl-b activity IC50
T1 sequence (Q13191 36-427): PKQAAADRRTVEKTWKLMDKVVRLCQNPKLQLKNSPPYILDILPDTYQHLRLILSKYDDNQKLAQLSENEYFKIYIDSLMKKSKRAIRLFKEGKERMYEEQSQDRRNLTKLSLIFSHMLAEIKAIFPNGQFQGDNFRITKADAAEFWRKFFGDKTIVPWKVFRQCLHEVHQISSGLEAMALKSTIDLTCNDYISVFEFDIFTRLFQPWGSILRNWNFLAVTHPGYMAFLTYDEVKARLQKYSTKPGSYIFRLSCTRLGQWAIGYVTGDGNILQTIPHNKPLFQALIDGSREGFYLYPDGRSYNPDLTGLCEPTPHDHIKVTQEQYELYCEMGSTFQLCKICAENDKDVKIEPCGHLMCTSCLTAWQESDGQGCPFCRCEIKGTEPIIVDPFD
In short: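 UbcH5B (C85K) conjugated to N-terminally Bodipy-Fluorescein-labeled ubiquitin served as the fluorescent partner. After compound preincubation, Src kinase (60 nM) with 1 mM ATP and 5 mM MgCl2 (final) was added for 1.5 h, followed by a further 1 h incubation. Some values were obtained with 50 mM NaCl and 30 nM Src.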

Cbl-b [6] = target: T1, Cbl-b; assay: Cbl-b inhibition assay (Cbl-b activity assay, FRET, Biological Example 1; 100 mM NaCl, 60 nM Src kinase); assay type: biochemical; conditions: upper bound stated in text lists; read-out: IC50 values in the Cbl-b inhibition assay of Biological Example 1
In short: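 FRET read-out: loss of signal marks inhibition. Mix = biotin-Avi-Cbl-b (N-term), Src kinase, UbcH5B-Ub(Bodipy-FL, irreversible conjugate), streptavidin-Tb, assay buffer.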

SMILES	fold induction at 0.3 µM (T-cell [1])	fold induction at 1 µM (T-cell [1])	fold induction at 4 µM (T-cell [1])	fold induction at 1 µM (T-cell [2])	fold induction at 8 µM (T-cell [2])	fold induction at 0.3 µM (T-cell [3])	fold induction at 1 µM (T-cell [3])	fold induction at 4 µM (T-cell [3])	fold induction at 1 µM (T-cell [4])	fold induction at 8 µM (T-cell [4])	IC50 (Cbl-b [5]) [nM]	IC50 (Cbl-b [6]) [nM]
C[C@H](Cc1nncn1C)c1cccc(NC(=O)c2cc(C(F)(F)F)n[nH]2)c1 [Compound 314, (R)-N-(3-(1-(4-Methyl-4H-1,2,4-triazol-3-yl)propan-2-yl)phenyl)-3-(trifluoromethyl)-1H-pyrazole-5-carboxamide]	1.01 to 2.5	1.01 to 2.5	1.01 to 2.5	0.051 to 0.1	0.101 to 0.15	1.01 to 1.3	1.01 to 1.3	1.01 to 1.3	0.601 to 0.8	0.601 to 0.8	301 to 1000	–
C[C@H](Cc1nncn1C)c1cccc(NC(=O)c2coc(C(F)(F)F)n2)c1 [Compound 315, (R)-N-(3-(1-(4-Methyl-4H-1,2,4-triazol-3-yl)propan-2-yl)phenyl)-2-(trifluoromethyl)oxazole-4-carboxamide]	< 1	1.01 to 2.5	1.01 to 2.5	0.051 to 0.1	0.101 to 0.15	1.01 to 1.3	1.01 to 1.3	1.01 to 1.3	0.601 to 0.8	0.801 to 1	301 to 1000	–
C[C@H](Cc1nncn1C)c1cccc(NC(=O)c2ccn3nccc3n2)c1 [Compound 316, (R)-N-(3-(1-(4-Methyl-4H-1,2,4-triazol-3-yl)propan-2-yl)phenyl)pyrazolo[1,5-a]pyrimidine-5-carboxamide]	1.01 to 2.5	1.01 to 2.5	2.51 to 5	0.051 to 0.1	0.151 to 0.2	1.01 to 1.3	1.01 to 1.3	1.01 to 1.3	0.601 to 0.8	> 1	301 to 1000	–
C[C@H](Cc1nncn1C)c1cccc(NC(=O)c2cc3cccn3cn2)c1 [Compound 317, (R)-N-(3-(1-(4-Methyl-4H-1,2,4-triazol-3-yl)propan-2-yl)phenyl)pyrrolo[1,2-c]pyrimidine-3-carboxamide]	1.01 to 2.5	1.01 to 2.5	1.01 to 2.5	0.051 to 0.1	0.101 to 0.15	1.01 to 1.3	1.01 to 1.3	1.01 to 1.3	0.601 to 0.8	0.801 to 1	301 to 1000	–
Cn1cnnc1CC1(c2cccc(N3Cc4c(cc(CN5CCN6C(=O)CCC6C5)cc4C(F)(F)F)C3=O)c2)COC1 (stereo not drawn) [Example 711, 2-((2-(3-(3-((4-methyl-4H-1,2,4-triazol-3-yl)methyl)oxetan-3-yl)phenyl)-3-oxo-7-(trifluoromethyl)isoindolin-5-yl)methyl)hexahydropyrrolo[1,2-a]pyrazin-6(2H)-one]	–	–	–	–	–	–	–	–	–	–	< 100	≤ 100
Cn1cnnc1CC1(c2cccc(N3Cc4c(cc(CN5CCOC6(CCOC6)C5)cc4C(F)(F)F)C3=O)c2)COC1 (stereo not drawn) [Example 712, 6-((2,6-dioxa-9-azaspiro[4.5]decan-9-yl)methyl)-2-(3-(3-((4-methyl-4H-1,2,4-triazol-3-yl)methyl)oxetan-3-yl)phenyl)-4-(trifluoromethyl)isoindolin-1-one]	–	–	–	–	–	–	–	–	–	–	< 100	≤ 100
Cn1cnnc1CC1(c2cccc(N3Cc4c(cc(CN5CCOC(CF)C5)cc4C(F)(F)F)C3=O)c2)COC1 (stereo not drawn) [Example 714, 6-((2-(fluoromethyl)morpholino)methyl)-2-(3-(3-((4-methyl-4H-1,2,4-triazol-3-yl)methyl)oxetan-3-yl)phenyl)-4-(trifluoromethyl)isoindolin-1-one]	–	–	–	–	–	–	–	–	–	–	< 100	≤ 100
Cn1cnnc1CC1(c2cccc(N3Cc4c(cc(CN5CCOC(CC(F)(F)F)C5)cc4C(F)(F)F)C3=O)c2)COC1 (stereo not drawn) [Example 715, 2-(3-(3-((4-methyl-4H-1,2,4-triazol-3-yl)methyl)oxetan-3-yl)phenyl)-6-((2-(2,2,2-trifluoroethyl)morpholino)methyl)-4-(trifluoromethyl)isoindolin-1-one]	–	–	–	–	–	–	–	–	–	–	< 100	≤ 100
CC(C)C1CN(Cc2cc3c(c(C(F)(F)F)c2)CN(c2cccc(C4(Cc5nncn5C)COC4)c2)C3=O)CCO1 (stereo not drawn) [Example 716, 6-[(2-isopropylmorpholin-4-yl)methyl]-2-(3-{3-[(4-methyl-1,2,4-triazol-3-yl)methyl]oxetan-3-yl}phenyl)-4-(trifluoromethyl)-3H-isoindol-1-one]	–	–	–	–	–	–	–	–	–	–	< 100	≤ 100
Cn1cnnc1CC1(c2cccc(N3Cc4c(cc(CN5CCOC(CCO)C5)cc4C(F)(F)F)C3=O)c2)COC1 (stereo not drawn) [Example 717, 6-{[2-(2-hydroxyethyl)morpholin-4-yl]methyl}-2-(3-{3-[(4-methyl-1,2,4-triazol-3-yl)methyl]oxetan-3-yl}phenyl)-4-(trifluoromethyl)-3H-isoindol-1-one]	–	–	–	–	–	–	–	–	–	–	< 100	≤ 100
Cn1cnnc1CC1(c2cccc(N3Cc4c(cc(CN5CCOC(C6CC6)C5)cc4C(F)(F)F)C3=O)c2)COC1 (stereo not drawn) [Example 718, 6-[(2-cyclopropylmorpholin-4-yl)methyl]-2-(3-{3-[(4-methyl-1,2,4-triazol-3-yl)methyl]oxetan-3-yl}phenyl)-4-(trifluoromethyl)-3H-isoindol-1-one]	–	–	–	–	–	–	–	–	–	–	< 100	≤ 100
Cn1cnnc1CC1(c2cccc(N3Cc4c(cc(CN5CCOC(C6CCC6)C5)cc4C(F)(F)F)C3=O)c2)COC1 (stereo not drawn) [Example 719, 6-[(2-cyclobutylmorpholin-4-yl)methyl]-2-(3-{3-[(4-methyl-1,2,4-triazol-3-yl)methyl]oxetan-3-yl}phenyl)-4-(trifluoromethyl)-3H-isoindol-1-one]	–	–	–	–	–	–	–	–	–	–	< 100	≤ 100
